# Reference: ChEMBL document CHEMBL1131540 (Bioorg Med Chem Lett, 1998)
# Legend:
# Mu-type opioid receptor [1] = biological target: T1, Mu-type opioid receptor (Cavia porcellus, UniProt P97266); assay: Inhibitory concentration required against biological activity of mu opioid receptor from guinea pig ileum (GPI); type: tissue-based
# Mu-type opioid receptor [2] = biological target: T1, Mu-type opioid receptor; assay: Compound was tested for binding affinity towards mu opioid receptor in guinea pig brain homogenates using [3H]CTOP as radioligand; type: tissue-based
# [3] = biological target: Delta-type opioid receptor (Mus musculus, UniProt P32300); assay: Inhibitory concentration required against biological activity of Opioid receptor delta 1 from mouse vas deferens (MVD)
# [4] = tested on: Opioid receptors; mu & delta; assay: Ratio of activity of mu opioid receptor from guinea pig ileum (GPI) to that of delta opioid receptor from mouse vas deferens (MVD); type: tissue-based
# [5] = biological target: Opioid receptors; mu & delta (Homo sapiens) (UniProt P41143+P35372); assay: Selectivity ratio of binding affinity towards delta opioid receptor to that of mu opioid receptor; type: protein assay
# Sequence of Opioid receptors; mu & delta (Homo sapiens) (P35372 whole entry, looked up): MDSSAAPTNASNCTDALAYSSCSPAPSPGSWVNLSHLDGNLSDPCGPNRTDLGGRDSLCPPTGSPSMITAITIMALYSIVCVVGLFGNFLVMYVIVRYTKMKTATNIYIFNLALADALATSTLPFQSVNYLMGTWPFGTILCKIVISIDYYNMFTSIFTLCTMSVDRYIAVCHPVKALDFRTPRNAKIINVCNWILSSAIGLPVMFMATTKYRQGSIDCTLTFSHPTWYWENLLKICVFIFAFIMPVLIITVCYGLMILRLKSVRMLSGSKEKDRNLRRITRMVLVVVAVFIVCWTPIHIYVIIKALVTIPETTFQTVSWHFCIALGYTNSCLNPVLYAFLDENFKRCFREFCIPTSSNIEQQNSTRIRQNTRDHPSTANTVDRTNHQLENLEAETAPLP
# Sequence of Opioid receptors; mu & delta (Homo sapiens) (P41143 whole entry, looked up): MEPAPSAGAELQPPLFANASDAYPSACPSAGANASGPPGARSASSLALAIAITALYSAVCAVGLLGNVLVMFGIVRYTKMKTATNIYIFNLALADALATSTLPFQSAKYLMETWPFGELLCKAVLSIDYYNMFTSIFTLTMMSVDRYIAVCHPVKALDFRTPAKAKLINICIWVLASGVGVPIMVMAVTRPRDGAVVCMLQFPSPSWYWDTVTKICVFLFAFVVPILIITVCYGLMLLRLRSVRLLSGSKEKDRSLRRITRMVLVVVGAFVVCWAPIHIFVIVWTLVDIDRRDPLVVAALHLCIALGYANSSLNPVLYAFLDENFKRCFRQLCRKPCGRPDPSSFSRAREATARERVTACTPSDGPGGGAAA
# T1 sequence (P97266 whole entry): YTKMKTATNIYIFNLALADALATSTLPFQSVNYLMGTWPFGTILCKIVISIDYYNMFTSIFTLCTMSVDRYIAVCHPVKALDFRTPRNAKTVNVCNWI
# Sequence of Delta-type opioid receptor (P32300 whole entry): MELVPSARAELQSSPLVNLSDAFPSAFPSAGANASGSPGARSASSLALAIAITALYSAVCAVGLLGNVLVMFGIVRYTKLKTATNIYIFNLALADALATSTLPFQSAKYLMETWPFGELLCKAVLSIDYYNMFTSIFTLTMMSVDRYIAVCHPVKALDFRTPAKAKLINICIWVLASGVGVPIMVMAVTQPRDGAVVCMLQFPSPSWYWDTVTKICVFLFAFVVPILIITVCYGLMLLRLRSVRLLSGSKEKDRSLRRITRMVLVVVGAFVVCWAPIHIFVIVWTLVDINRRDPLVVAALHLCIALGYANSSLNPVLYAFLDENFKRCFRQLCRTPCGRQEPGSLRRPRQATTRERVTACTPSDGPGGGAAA
Structure (SMILES),IC50 (Mu-type opioid receptor [1]) [nM],Ki (Mu-type opioid receptor [2]) [nM],IC50 [3] [nM],Ratio [4],Ratio [5]
C[C@@H](NC(=O)[C@@H](N)Cc1ccc(O)cc1)C(=O)NCC(=O)N[C@@H](Cc1cccc2ccccc12)C(=O)NNC(=O)[C@H](Cc1cccc2ccccc12)NC(=O)CNC(=O)[C@@H](C)NC(=O)[C@@H](N)Cc1ccc(O)cc1,1.7,0.79,17,0.1,0.12
C[C@H](c1ccccc1)[C@H](NC(=O)CNC(=O)[C@@H](C)NC(=O)[C@@H](N)Cc1ccc(O)cc1)C(=O)NNC(=O)[C@@H](NC(=O)CNC(=O)[C@@H](C)NC(=O)[C@@H](N)Cc1ccc(O)cc1)[C@H](C)c1ccccc1 (stereo in doubt),21,1.3,180,0.12,0.012
"CC(NC(=O)[C@@H](N)Cc1ccc(O)cc1)C(=O)NCC(=O)N[C@H](C(=O)NNC(=O)[C@@H](NC(=O)CNC(=O)C(C)NC(=O)[C@@H](N)Cc1ccc(O)cc1)[C@@H](C)c1ccccc1)[C@@H](C)c1ccccc1 (single isomer, unassigned)",41,3,120,0.34,0.27
C[C@@H](NC(=O)[C@@H](N)Cc1ccc(O)cc1)C(=O)NCC(=O)N[C@@H](Cc1ccc2ccccc2c1)C(=O)NNC(=O)[C@H](Cc1ccc2ccccc2c1)NC(=O)CNC(=O)[C@@H](C)NC(=O)[C@@H](N)Cc1ccc(O)cc1,2.2,1.7,9.3,0.24,0.23
C[C@@H](NC(=O)[C@@H](N)Cc1ccc(O)cc1)C(=O)NCC(=O)N[C@@H](Cc1c(F)c(F)c(F)c(F)c1F)C(=O)NNC(=O)[C@H](Cc1c(F)c(F)c(F)c(F)c1F)NC(=O)CNC(=O)[C@@H](C)NC(=O)[C@@H](N)Cc1ccc(O)cc1,8.9,0.91,25,0.36,0.12
